{"source": "patent US20240025884A1", "about": "(Dong-A ST Co., Ltd., priority 2022, published 2024)"}
{"target": "GCN2 (Homo sapiens (Human), UniProt Q9P2K8)", "sequence (Q9P2K8 whole entry)": "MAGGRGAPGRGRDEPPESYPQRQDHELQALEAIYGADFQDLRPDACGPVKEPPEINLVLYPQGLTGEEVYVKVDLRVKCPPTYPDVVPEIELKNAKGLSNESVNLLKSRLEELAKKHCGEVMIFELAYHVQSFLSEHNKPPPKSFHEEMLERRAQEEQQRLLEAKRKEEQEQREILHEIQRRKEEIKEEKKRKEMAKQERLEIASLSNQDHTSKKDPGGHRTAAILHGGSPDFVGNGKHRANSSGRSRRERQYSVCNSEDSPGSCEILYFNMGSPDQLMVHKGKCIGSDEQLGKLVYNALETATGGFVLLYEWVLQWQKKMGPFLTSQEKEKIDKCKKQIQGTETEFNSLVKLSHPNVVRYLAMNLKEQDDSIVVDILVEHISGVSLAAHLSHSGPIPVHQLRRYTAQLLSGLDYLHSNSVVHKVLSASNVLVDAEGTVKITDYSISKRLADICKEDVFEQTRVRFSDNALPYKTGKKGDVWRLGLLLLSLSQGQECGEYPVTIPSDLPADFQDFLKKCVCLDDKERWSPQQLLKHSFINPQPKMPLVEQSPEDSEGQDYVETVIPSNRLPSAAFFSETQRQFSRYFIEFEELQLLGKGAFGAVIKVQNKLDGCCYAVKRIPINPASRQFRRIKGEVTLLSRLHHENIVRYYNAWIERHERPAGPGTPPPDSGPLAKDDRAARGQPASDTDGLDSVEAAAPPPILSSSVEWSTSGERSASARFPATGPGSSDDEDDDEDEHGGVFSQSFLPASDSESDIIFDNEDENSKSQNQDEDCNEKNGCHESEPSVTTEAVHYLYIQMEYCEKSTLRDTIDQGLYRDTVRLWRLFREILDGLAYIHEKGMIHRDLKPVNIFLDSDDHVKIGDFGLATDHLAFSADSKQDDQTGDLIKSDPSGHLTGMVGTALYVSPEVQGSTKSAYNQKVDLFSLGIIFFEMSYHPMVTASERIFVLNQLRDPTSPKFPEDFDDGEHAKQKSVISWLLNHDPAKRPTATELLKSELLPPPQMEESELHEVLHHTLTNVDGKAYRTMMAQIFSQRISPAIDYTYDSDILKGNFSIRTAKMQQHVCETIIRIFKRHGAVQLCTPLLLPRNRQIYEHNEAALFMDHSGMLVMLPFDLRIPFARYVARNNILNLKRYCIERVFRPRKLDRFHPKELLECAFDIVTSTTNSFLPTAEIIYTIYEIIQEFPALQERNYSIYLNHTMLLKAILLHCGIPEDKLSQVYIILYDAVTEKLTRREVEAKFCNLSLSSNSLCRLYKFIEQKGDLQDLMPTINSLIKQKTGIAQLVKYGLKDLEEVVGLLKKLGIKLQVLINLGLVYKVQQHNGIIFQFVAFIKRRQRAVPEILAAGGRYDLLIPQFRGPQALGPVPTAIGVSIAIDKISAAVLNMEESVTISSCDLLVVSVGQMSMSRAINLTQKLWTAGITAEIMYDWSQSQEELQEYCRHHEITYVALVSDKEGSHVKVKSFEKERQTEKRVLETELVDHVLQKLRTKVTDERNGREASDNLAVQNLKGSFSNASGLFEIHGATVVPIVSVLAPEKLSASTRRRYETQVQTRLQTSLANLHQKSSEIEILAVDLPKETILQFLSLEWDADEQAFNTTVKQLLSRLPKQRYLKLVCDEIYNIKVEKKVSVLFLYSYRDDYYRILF", "experiment": "GCN2 Biochemical Assay (TR-FRET, GFP-eIF2S1 substrate phosphorylation)", "settings": "read-out: IC50 (GCN2 Inhibitory Activity)", "procedure,_shortened": "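In-house GCN2 (1.6 nM 2× stock) phosphorylates GFP-eIF2S1 (50 nM 2× stock) with ATP (0.2 mM 2× stock) and tRNA, pH 7.5, 70 min at room temperature; 10-point 3.16-fold compound series. TR-FRET detection with Tb-anti-phospho antibody, 2–3 h, Ex 340/Em 490/520 nm; artifact plate spiked with phospho-substrate.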", "units": {"IC50": "µM"}}
{"smiles": "Cc1cnc(Nc2cc(C)n(C)n2)nc1-c1c[nH]c2c(NC(=O)CN3CC[C@H](C(=O)N4CCOCC4)C3)cccc12", "note": "[Example 63, (S)-N-(3-(2-((1,5-dimethyl-1H-pyrazol-3-yl)amino)-5-methylpyrimidin-4-yl)-1H-indol-7-yl)-2-(3-(morpholine-4-carbonyl)pyrrolidin-1-yl)acetamide]", "IC50": "0.1 to 1"}
{"smiles": "Cc1cnc(Nc2cc(C)n(C)n2)nc1-c1c[nH]c2c(NC(=O)CN3CC[C@H](C(=O)N4CCSCC4)C3)cccc12", "note": "[Example 64, (S)-N-(3-(2-((1,5-dimethyl-1H-pyrazol-3-yl)amino)-5-methylpyrimidin-4-yl)-1H-indol-7-yl)-2-(3-(thiomorpholine-4-carbonyl)pyrrolidin-1-yl)acetamide]", "IC50": "0.01 to 0.1"}
{"smiles": "Cc1cnc(Nc2cc(C)n(C)n2)nc1-c1c[nH]c2c(NC(=O)CN3CC[C@@H](C(=O)N4CCN(C)CC4)C3)cccc12", "note": "[Example 65, (R)-N-(3-(2-((1,5-dimethyl-1H-pyrazol-3-yl)amino)-5-methylpyrimidin-4-yl)-1H-indol-7-yl)-2-(3-(4-methylpiperazine-1-carbonyl)pyrrolidin-1-yl)acetamide]", "IC50": "0.1 to 1"}
{"smiles": "Cc1cnc(Nc2cc(C)n(C)n2)nc1-c1c[nH]c2c(NC(=O)CN3CC[C@@H](C(=O)N4CCNC(=O)C4)C3)cccc12", "note": "[Example 66, (R)-N-(3-(2-((1,5-dimethyl-1H-pyrazol-3-yl)amino)-5-methylpyrimidin-4-yl)-1H-indol-7-yl)-2-(3-(3-oxopiperazine-1-carbonyl)pyrrolidin-1-yl)acetamide]", "IC50": "0.1 to 1"}
{"smiles": "Cc1cnc(Nc2cc(C)n(C)n2)nc1-c1c[nH]c2c(NC(=O)CN3CC[C@@H](C(=O)N4CCOCC4)C3)cccc12", "note": "[Example 67, (R)-N-(3-(2-((1,5-dimethyl-1H-pyrazol-3-yl)amino)-5-methylpyrimidin-4-yl)-1H-indol-7-yl)-2-(3-(morpholine-4-carbonyl)pyrrolidin-1-yl)acetamide]", "IC50": "0.1 to 1"}
{"smiles": "Cc1cnc(Nc2cc(C)n(C)n2)nc1-c1c[nH]c2c(NC(=O)CN3CC[C@@H](C(=O)N4CCSCC4)C3)cccc12", "note": "[Example 68, (R)-N-(3-(2-((1,5-dimethyl-1H-pyrazol-3-yl)amino)-5-methylpyrimidin-4-yl)-1H-indol-7-yl)-2-(3-(thiomorpholine-4-carbonyl)pyrrolidin-1-yl)acetamide]", "IC50": "0.01 to 0.1"}
{"smiles": "Cc1cnc(Nc2cc(C)n(C)n2)nc1-c1c[nH]c2c(NC(=O)CN3CC[C@H](C(=O)N4CC=CCC4)C3)cccc12", "note": "[Example 69, (S)-N-(3-(2-((1,5-dimethyl-1H-pyrazol-3-yl)amino)-5-methylpyrimidin-4-yl)-1H-indol-7-yl)-2-(3-(1,2,3,6-tetrahydropyridine-1-carbonyl)pyrrolidin-1-yl)acetamide]", "IC50": "0.01 to 0.1"}
{"smiles": "Cc1cnc(Nc2cc(C)n(C)n2)nc1-c1c[nH]c2c(NC(=O)CN3CCC(O)C3)cccc12", "note": "(centres unmarked) [Example 70, N-(3-(2-((1,5-dimethyl-1H-pyrazol-3-yl)amino)-5-methylpyrimidin-4-yl)-1H-indol-7-yl)-2-(3-hydroxypyrrolidin-1-yl)acetamide]", "IC50": "0.01 to 0.1"}
{"smiles": "Cc1cnc(Nc2cc(C)n(C)n2)nc1-c1c[nH]c2c(NC(=O)CN3CC[C@@H](O)C3)cccc12", "note": "[Example 71, (R)-N-(3-(2-((1,5-dimethyl-1H-pyrazol-3-yl)amino)-5-methylpyrimidin-4-yl)-1H-indol-7-yl)-2-(3-hydroxypyrrolidin-1-yl)acetamide]", "IC50": "0.01 to 0.1"}
{"smiles": "Cc1cnc(Nc2cc(C)n(C)n2)nc1-c1c[nH]c2c(NC(=O)CN3CC[C@H](O)C3)cccc12", "note": "[Example 72, (S)-N-(3-(2-((1,5-dimethyl-1H-pyrazol-3-yl)amino)-5-methylpyrimidin-4-yl)-1H-indol-7-yl)-2-(3-hydroxypyrrolidin-1-yl)acetamide]", "IC50": "0.01 to 0.1"}
{"smiles": "Cc1cnc(Nc2cc(C)n(C)n2)nc1-c1c[nH]c2c(NC(=O)CN3CC[C@H](Oc4ccccn4)C3)cccc12", "note": "[Example 73, (S)-N-(3-(2-((1,5-dimethyl-1H-pyrazol-3-yl)amino)-5-methylpyrimidin-4-yl)-1H-indol-7-yl)-2-(3-(pyridin-2-yloxy)pyrrolidin-1-yl)acetamide]", "IC50": "0.01 to 0.1"}
{"smiles": "Cc1cnc(Nc2cc(C)n(C)n2)nc1-c1c[nH]c2c(NC(=O)CN3CCC(Oc4ccncc4)C3)cccc12", "note": "(centres unmarked) [Example 76, N-(3-(2-((1,5-dimethyl-1H-pyrazol-3-yl)amino)-5-methylpyrimidin-4-yl)-1H-indol-7-yl)-2-(3-(pyridin-4-yloxy)pyrrolidin-1-yl)acetamide]", "IC50": "< 0.01"}
{"smiles": "Cc1cnc(Nc2cc(C)n(C)n2)nc1-c1c[nH]c2c(NC(=O)CN3CC[C@@H](Oc4ccncc4)C3)cccc12", "note": "[Example 77, (R)-N-(3-(2-((1,5-dimethyl-1H-pyrazol-3-yl)amino)-5-methylpyrimidin-4-yl)-1H-indol-7-yl)-2-(3-(pyridin-4-yloxy)pyrrolidin-1-yl)acetamide]", "IC50": "0.01 to 0.1"}
{"smiles": "Cc1cnc(Nc2cc(C)n(C)n2)nc1-c1c[nH]c2c(NC(=O)CN3CC[C@H](Oc4ccncn4)C3)cccc12", "note": "[Example 78, (S)-N-(3-(2-((1,5-dimethyl-1H-pyrazol-3-yl)amino)-5-methylpyrimidin-4-yl)-1H-indol-7-yl)-2-(3-(pyrimidin-4-yloxy)pyrrolidin-1-yl)acetamide]", "IC50": "< 0.01"}
{"smiles": "Cc1cnc(Nc2cc(C)n(C)n2)nc1-c1c[nH]c2c(NC(=O)CN3CC[C@H](Oc4cnccn4)C3)cccc12", "note": "[Example 79, (S)-N-(3-(2-((1,5-dimethyl-1H-pyrazol-3-yl)amino)-5-methylpyrimidin-4-yl)-1H-indol-7-yl)-2-(3-(pyrazin-2-yloxy)pyrrolidin-1-yl)acetamide]", "IC50": "< 0.01"}
{"smiles": "Cc1cnc(Nc2cc(C)n(C)n2)nc1-c1c[nH]c2c(NC(=O)CN3CC[C@H](Oc4ccc(F)cc4)C3)cccc12", "note": "[Example 80, (S)-N-(3-(2-((1,5-dimethyl-1H-pyrazol-3-yl)amino)-5-methylpyrimidin-4-yl)-1H-indol-7-yl)-2-(3-(4-fluorophenoxy)pyrrolidin-1-yl)acetamide]", "IC50": "0.1 to 1"}
{"smiles": "Cc1cnc(Nc2cc(C)n(C)n2)nc1-c1c[nH]c2c(NC(=O)CN3CC[C@H](Oc4cccc(F)c4)C3)cccc12", "note": "[Example 81, (S)-N-(3-(2-((1,5-dimethyl-1H-pyrazol-3-yl)amino)-5-methylpyrimidin-4-yl)-1H-indol-7-yl)-2-(3-(3-fluorophenoxy)pyrrolidin-1-yl)acetamide]", "IC50": "0.1 to 1"}
{"smiles": "Cc1cnc(Nc2cc(C)n(C)n2)nc1-c1c[nH]c2c(NC(=O)CN3CC[C@H](Oc4ccc(Cl)cc4)C3)cccc12", "note": "[Example 82, (S)-2-(3-(4-chlorophenoxy)pyrrolidin-1-yl)-N-(3-(2-((1,5-dimethyl-1H-pyrazol-3-yl)amino)-5-methylpyrimidin-4-yl)-1H-indol-7-yl)acetamide]", "IC50": "0.1 to 1"}
{"smiles": "Cc1cnc(Nc2cc(C)n(C)n2)nc1-c1c[nH]c2c(NC(=O)CN3CC[C@H](Oc4ccc(F)cc4F)C3)cccc12", "note": "[Example 83, (S)-2-(3-(2,4-difluorophenoxy)pyrrolidin-1-yl)-N-(3-(2-((1,5-dimethyl-1H-pyrazol-3-yl)amino)-5-methylpyrimidin-4-yl)-1H-indol-7-yl)acetamide]", "IC50": "0.01 to 0.1"}
{"smiles": "Cc1cnc(Nc2cc(C)n(C)n2)nc1-c1c[nH]c2c(NC(=O)CN3CC[C@H](Oc4ccc(F)c(F)c4)C3)cccc12", "note": "[Example 84, (S)-2-(3-(3,4-difluorophenoxy)pyrrolidin-1-yl)-N-(3-(2-((1,5-dimethyl-1H-pyrazol-3-yl)amino)-5-methylpyrimidin-4-yl)-1H-indol-7-yl)acetamide]", "IC50": "0.1 to 1"}
